Data taken from paper PMC7732531 (Frontiers in Pharmacology, 2020).
Where “and” joins values, the source holds several entries; their conditions need not be identical. Equal values may be shown once. Read-outs that look alike come from different tables or passages of the source.

How the values were obtained:
[1] = Metabolic stability in human liver microsomes (NADPH / UDPGA); conditions: HLM
[2] = in vitro; conditions: human, microsomes, pH 7.4
[3] = Mass balance study in rats via oral administration; conditions: rat, feces
[4] = human, microsomes, 0 h, 1 μM, pH 7.4
[5] = Brain distribution under steady state (Kp,uu); type: in vivo, rat
[6] = system: TSPO; parameters: method as in Zhang et al. (2017); conditions: crude mitochondrial fraction from rat cerebellum, 10 volumes HS buffer; ref Zhang et al. (2017); cited from earlier work
[7] = system: forced swim rats; parameters: method as in Zhang et al., 2017; conditions: ref Zhang et al., 2017, cited from earlier work
[8] = Metabolic stability in rat liver microsomes (NADPH / UDPGA); conditions: RLM
[9] = human, microsomes, 0 h, 1 μM, pH 7.4; remark: listed apart in the source
[10] = male, rat, in vivo, po, 1 mg/kg; for Plasma concentration: SD
Description: The surgical procedure for portal vein catheter insertion was performed according to reference ([Matsuda et al., 2012]). Male SD rats (250–280 g) were purchased from Beijing Vital River Laboratory Animal Technology Co., Ltd. (Beijing, China). Rats were anesthetized with 2% pentobarbital sodium (0.2–0.3 mg/100 g) intraperitoneally dosed. Cannulation into the jugular vein was performed by the method of Murakami reported ([Murakami et al., 2003]) with minor modification. Briefly, an incision of ∼0.5 cm near right clavicle was made and the jugular vein was exposed. Next, this vein was cannulated with ∼12.5 cm of silicone gel tubing (0.6 mm I.D. × 0.9 mm O.D., Skillsmodel Inc., Beijing, China). The other side of the tubing was passed through the back skin. 2.5 cm midline incision was made in the abdominal cavity close to ensiform process and the portal vein was detached. To prevent bleeding, the portal vein was ligated temporarily as the catheter was inserted. The silicone tubing (22 cm, 0.6 mm I.D. × 0.9 mm O.D., Skillsmodel Inc., Beijing, China) was inserted immediately and fixed by a purse-string suture on the portal vein. The time to reperfusion was about 1 min after intercepted blood flow. In addition, a catheter with trumpet-shaped opening was used to prevent the catheter from slipping out of the vessel and minimize the effect on blood flow. Another end of the catheter was passed subcutaneously to the skin close to the scapula.
Blood samples were collected at 0, 0.083, 0.25, 0.5, 1, 2, 4, 6, 8 and 12 h. Blood (approximately 100 µl) was collected from the jugular and portal veins into tubes containing heparin on ice and centrifuged within 1 h of collection. Plasma was harvested and stored at −20°C for bioanalysis.
FaFg was calculated using mass balance method and rat portal blood flow (Qpv) of 32 ml/min/kg, where Rb/p is used to convert plasma concentrations to blood concentrations.

[11] = in vitro; type: in vitro ADME; conditions: human, microsomes
Description: (§3) The fraction of unbound YL-IPA08 in plasma and liver microsomes of rat and human, and brain homogenates of rat were determined utilizing Rapid Equilibrium Dialysis method ([Waters et al., 2008]). Rat brain homogenate was harvested in 4-fold volume (w/v) of PBS (pH 7.4). YL-IPA08 were spiked into fresh plasma, rat brain homogenate, liver microsomes (0.2 mg/ml protein) at concentration of 1 µM, and then dialyzed against biomatrices on a shaker at 37°C for 4 h. To avoid the high non-specific binding of YL-IPA08, 0.01% Tween 80 was added in the incubation mixture. At the end of the incubation, protein was precipitated with acetonitrile (containing IS) and analyzed by LC-MS/MS. Phenacetin, quinidine, and warfarin were selected as positive control for the protein binding test.
The unbound fraction of YL-IPA08 in plasma or liver microsomes (ƒu,x) was calculated as shown in Eq. 2, and unbound fraction in the tissue homogenate (ƒu,b) was calculated according to Eq. 3. fu,x = Concbuffer chamber/Concplasma/liver microsomes chamber (2) fu,b = Concbuffer chamber/Concbrain homogenate chamber (3) The measured unbound fractions would be higher when a tissue is homogenized and diluted in buffer, the unbound fractions in an undiluted tissues (ƒu,brain) were calculated using Eq. 4 ([Kalvass and Maurer, 2002]). […]

[12] = system: Caco-2 cells; assay: in vitro
Description: (§1) Caco-2 cell lines were cultured (ATCC, Manassas, VA, United States) as described previously ([Liu et al., 2014]). Briefly, the cells were cultured at 37°C in 5% CO2 at 90% humidity in DMEM high glucose medium containing 20% fetal bovine serum, 1% nonessential amino acids, 100 U/ml penicillin and 1% streptomycin. For the efflux studies, the cells were seeded onto polyethylene terephthalate Millicell® cell culture inserts (0.4 μm pore size, 6.5 mm diameter, Millipore Corporation, Billerica, MA, United States) at a density of 1.7 × 10^5 cells/ml. The culture medium was refreshed on the day after seeding, after which it was refreshed every other day and on the day before the transport experiment. The cells were cultured for 20–22 days after seeding and then evaluated by measuring the transepithelial electrical resistance (TEER) (Millicell ERS®, Millipore Corporation) before experiments. […] Transepithelial permeability studies for YL-IPA08 (10 μM) were conducted from apical to basolateral side (A-B) and basolateral to apical side (B-A) for 120 min 0.2% BSA was included in the receiver solution to avoid nonspecific binding. At 60, 90, and 120 min, half volume of solution from receiver side was withdrawn, and same volume of HBSS was immediately added. Obtained samples were precipitated by adding 4× volumes of acetonitrile containing IS and centrifuged. The supernatants were stored in −20°C until further analysis by LC-MS/MS.
(§2) The in vitro t1/2 in liver microsomal incubation was calculated from the semi-log plot of percentage remaining vs. incubation time and intrinsic clearance (Clint, ml/min/mg protein) was calculated as Eq. 1: CLint=0.693/in vitro t1/2×volume of incubation (μl)/amount of microsomal protein in incubation (mg) (1) ([Suzuki et al., 2003]).Apparent permeability was obtained according to the equation Papp = (dQ/dt)/(A × C0), where dQ/dt is the mass transport rate (determined from the slope of the amount transported vs. time plot), A is the surface area of the monolayer, and C0 is the initial concentration of YL-IPA08 in the donor chamber ([Suzuki et al., 2003]). The efflux ratio was calculated for each study using the following equation: […] = Papp(B–A)/Papp(A–B), where Papp(B–A) and Papp(A–B) represent apparent drug permeability in the B to A and A to B direction, respectively. An efflux ratio greater than 2 indicates net efflux.

[13] = in vitro; conditions: human, Caco-2
Description: as §1, §2

[14] = in vitro; conditions: rat; for fraction unbound at 4 h, 1 µM: plasma
Description: The fraction of unbound YL-IPA08 in plasma and liver microsomes of rat and human, and brain homogenates of rat were determined utilizing Rapid Equilibrium Dialysis method ([Waters et al., 2008]). Rat brain homogenate was harvested in 4-fold volume (w/v) of PBS (pH 7.4). YL-IPA08 were spiked into fresh plasma, rat brain homogenate, liver microsomes (0.2 mg/ml protein) at concentration of 1 µM, and then dialyzed against […] on a shaker at 37°C for 4 h. To avoid the high non-specific binding of YL-IPA08, 0.01% Tween 80 was added in the incubation mixture. At the end of the incubation, protein was precipitated with acetonitrile (containing IS) and analyzed by LC-MS/MS. Phenacetin, quinidine, and warfarin were selected as positive control for the protein binding test.
The unbound fraction of YL-IPA08 in plasma or liver microsomes (ƒu,x) was calculated as shown in Eq. 2, and unbound fraction in the tissue homogenate (ƒu,b) was calculated according to Eq. 3. fu,x = Concbuffer chamber/Concplasma/liver microsomes chamber (2) fu,b = Concbuffer chamber/Concbrain homogenate chamber (3) The measured unbound fractions would be higher when a tissue is homogenized and diluted in buffer, the unbound fractions in an undiluted tissues (ƒu,brain) were calculated using Eq. 4 ([Kalvass and Maurer, 2002]). Undiluted fu,brain=1/D/((1/fu,brain homogenate)−1)+1/D (4) Where D represents the fold of dilution factor in brain homogenates. The free fraction of plasma and undiluted tissue is used in tissue-to-plasma exposure ratio calculation.

[15] = Protein binding by rapid equilibrium dialysis, rat brain homogenate; type: in vitro ADME
Description: as §3

CCN(Cc1ccccn1)C(=O)Cc1c(-c2ccc(Cl)c(Cl)c2)nc2cc(C)ccn12 [YL-IPA08]
Clint normalized by CYP content [1]: 3.47 ± 0.04 ml/min/nmol CYP protein and 2.76 ± 0.05 ^a ml/min/nmol CYP protein
microsomal CLint at 1 μM [2]: 200 ± 30 µL/min/mg
dose excreted [3]: 0.004%
percent of remaining [4]: 100.00%
unbound concentration in rat brain ([5]; estimated based on K p,uu): 0.0065 ng/mL
unbound concentration in brain ([5]; rats, after 1 mg/kg oral dosing, estimated from plasma concentrations and K p,uu): 6.5 pg/g
IC50 [6]: 0.23 nM
antidepressant-like effect ([7]; forced swim rats, 1, 3, and 10 mg/kg): marked acute antidepressant-like effects
antidepressant-like and anxiolytic-like effects ([7]; series of rat behavior models, 1–10 mg/kg oral dosing): significant antidepressant-like and anxiolytic-like effects
Clint normalized by CYP content [8]: 3.47 ± 0.04 ml/min/nmol CYP protein
percent of remaining [9]: 100.00%
Plasma concentration ([10]; 0.5 h): 111.40 ± 22.00 ng/mL
Plasma concentration ([10]; 1 h): 101.93 ± 40.76 ng/mL
Plasma concentration ([10]; 2 h): 91.33 ± 38.19 ng/mL
Plasma concentration ([10]; 4 h): 41.78 ± 20.79 ng/mL
Plasma concentration ([10]; 6 h): 12.85 ± 4.33 ng/mL
Plasma concentration ([10]; 8 h): 5.62 ± 1.64 ng/mL
Plasma concentration ([10]; 12 h): 1.98 ± 0.88 ng/mL
F a F g ([10]; Sprague-Dawley (SD)): 22%
fraction unbound at 4 h, 1 µM [11]: 0.447
permeability across Caco-2 cells (in words) ([12]; Caco-2): high permeability
Concentration, DOB ([12]; Caco-2, basolateral donor at time 0): 8883 ± 436 nM
Concentration, DOA ([12]; human, Caco-2, 0 min, 10 µM): 8350 ± 173 nM
Concentration, A-B-B-60 min ([12]; human, Caco-2, 60 min, 10 µM): 13 ± 4 nM
Concentration, B-A-A-60 min ([12]; human, Caco-2, 60 min, 10 µM): 28 ± 8 nM
Concentration, A-B-B-90min ([12]; human, Caco-2, 90 min, 10 µM): 36 ± 25 nM
Concentration, B-A-A-90min ([12]; human, Caco-2, 90 min, 10 µM): 68 ± 27 nM
Concentration, A-B-A-120 min ([12]; human, Caco-2, 120 min, 10 µM): 1755 ± 135 nM
Concentration, A-B-B-120 min ([12]; human, Caco-2, 120 min, 10 µM): 50 ± 17 nM
Concentration, B-A-A-120 min ([12]; human, Caco-2, 120 min, 10 µM): 105 ± 14 nM
Concentration, B-A-B-120 min ([12]; human, Caco-2, 120 min, 10 µM): 2598 ± 360 nM
P appA-B ([12]; human, Caco-2, 120 min, 10 µM): 3.99 × 10^–6 cm/s
P appB-A ([12]; human, Caco-2, 120 min, 10 µM): 2.63 × 10^–6 cm/s
Papp A→B at 120 min, 10 μM [13]: 3.99 ± 1.46 ×10⁻⁶ cm/s
Papp B→A at 120 min, 10 μM [13]: 2.63 ± 0.43 ×10⁻⁶ cm/s
efflux ratio at 120 min, 10 μM [13]: 0.66
Concentration, Cbuffer chamber ([14]; 4 h, 1 µM): 5.44 ± 0.33 nM
Concentration, Cplasma/microsome chamber ([14]; 4 h, 1 µM): 872.67 ± 32.52 nM
Protein biding (%) ([14]; 4 h, 1 µM): 99.40 ± 0.01%
fraction unbound at 4 h, 1 µM [14]: ~0.01
fraction unbound at 4 h, 1 µM ([14]; Unbound fraction): 0.006
Protein biding (%) ([15]; Rat brain homogenate, 1 µM, dialysis 4 h): 99.51 ± 0.01%
Concentration, Cbuffer chamber ([15]; Rat brain homogentate, 4 h): 18.85 ± 0.21 nM
Concentration, Cplasma/microsome chamber ([15]; rat, 4 h, 1 µM, pH 7.4): 788.33 ± 8.39 nM
fraction unbound at 4 h, 1 µM ([15]; rat, brain homogenate, pH 7.4): 0.0049
